pIC50, pKi: −log10 of the molar value. Activity calls are given as the source filed them. No cut-off for these calls is given here.

In assay [1] the target is T1, Tyrosinase (Agaricus bisporus, UniProt O42713).
T1 sequence (O42713 whole entry): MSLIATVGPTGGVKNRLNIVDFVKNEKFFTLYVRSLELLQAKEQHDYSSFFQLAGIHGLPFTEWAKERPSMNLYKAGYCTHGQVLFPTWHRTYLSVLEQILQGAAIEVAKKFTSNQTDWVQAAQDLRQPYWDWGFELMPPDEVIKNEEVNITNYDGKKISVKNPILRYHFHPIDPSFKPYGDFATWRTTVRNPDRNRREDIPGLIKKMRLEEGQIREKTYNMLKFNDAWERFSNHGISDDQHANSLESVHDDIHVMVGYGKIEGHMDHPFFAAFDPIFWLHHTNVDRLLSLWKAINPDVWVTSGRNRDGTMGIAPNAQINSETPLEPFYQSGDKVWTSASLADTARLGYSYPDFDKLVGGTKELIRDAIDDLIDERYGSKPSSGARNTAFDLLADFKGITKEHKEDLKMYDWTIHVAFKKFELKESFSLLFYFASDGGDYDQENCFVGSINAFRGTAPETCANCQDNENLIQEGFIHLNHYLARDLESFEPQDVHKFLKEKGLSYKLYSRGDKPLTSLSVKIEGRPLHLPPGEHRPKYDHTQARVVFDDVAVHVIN
Description: Competitive inhibition of mushroom tyrosinase using L-DOPA as substrate preincubated for 10 mins with substrate followed by enzyme addition measured after 15 mins by Dixon plot analysis.

Assay [2] addresses T1, Tyrosinase. The assay can be described thus: Inhibition of mushroom tyrosinase using L-DOPA as substrate preincubated for 10 mins with substrate followed by enzyme addition measured after 15 mins by spectrophotometry.
Assay [3] deals with T1, Tyrosinase. Description: Competitive inhibition of mushroom tyrosinase using L-tyrosine as substrate preincubated for 10 mins with substrate followed by enzyme addition measured after 15 mins by Dixon plot analysis.
For assay [4], the target named is T2, Tyrosinase (Agaricus bisporus) (UniProt O42713).
T2 sequence (whole entry): T1 sequence (O42713 whole entry)
The assay can be described thus: (§1) Inhibition of mushroom tyrosinase using L-tyrosine as substrate preincubated for 10 mins with substrate followed by enzyme addition measured after 15 mins by spectrophotometry.

In assay [5] the target is T1, Tyrosinase. The description is as §1.
For assay [6], the target named is T2, Tyrosinase (Agaricus bisporus). The assay can be described thus: Ratio of kojic acid IC50 to compound IC50 for mushroom tyrosinase using L-tyrosine as substrate.
For assay [7] the target is unchanged. The assay can be described thus: Reversible inhibition of mushroom tyrosinase at 0.781 to 3.125 uM.
For assay [8] the target is unchanged. Description: Inhibition of mushroom tyrosinase using L-tyrosine as substrate at 0.78 uM by spectrophotometry. The note with it: TDE = time-dependent effect.

As usually defined, the pKi is the Ki on a negative log10 scale, so that one unit is a factor of ten. Higher therefore signals a small Ki. What is called pIC50 is −log10 of the IC50, conventionally taken in molar units. A high value points to a small IC50. As for `CC(C)=CCc1c2c(c(O)c3c1O[C@H](c1ccc(O)cc1O)CC3=O)C=CC(C)(C)O2` [FLEMICHIN D], the pKi at Tyrosinase [1] was 5.42; at Tyrosinase [3], 6.07. Moreover, the pIC50 was 5.13 against Tyrosinase [2] and 5.75 against Tyrosinase [5]. Further, the inhibition result in assay [4] is “Dose-dependent effect”.

In the case of `COc1ccc(CCC(=O)c2ccc3c(c2O)CC(O)C(C)(C)O3)cc1` (centres undefined), the values for the pKi on Tyrosinase [1] and on Tyrosinase [3] were 4.88 and 5.03, respectively. Besides, the values for the pIC50 on Tyrosinase [2] and against Tyrosinase [5] were 4.49 and 4.74, respectively. In addition, the inhibition entry in assay [4] is “Dose-dependent effect”.

In the case of `COc1ccc([C@@H]2CC(=O)c3c(O)c4c(c(CC=C(C)C)c3O2)OC(C)(C)C=C4)c(O)c1` [KHONKLONGINOL H], the pKi is 5.09 on Tyrosinase [1] and 5.68 at Tyrosinase [3]. For the same compound, the figures for the negative-log IC50 (pIC50) on Tyrosinase [2] and against Tyrosinase [5] were 4.69 and 5.30, respectively. Further, the inhibition entry in assay [4] was “Dose-dependent effect”.

For `COc1ccc(CCC(=O)c2c(O)c3c(c4c2OC(C(C)(C)O)C4)OC(C)(C)C=C3)cc1` (centres undefined), in assay [6], the Ratio IC50 amounted to 10. For the same compound, the pKi on Tyrosinase [1] was 5.56; on Tyrosinase [3] it was 6.20. For the same compound, the pIC50 at Tyrosinase [2] was 5.28; on Tyrosinase [5], 5.89. In addition, the inhibition result in assay [4] was “Dose-dependent effect”.

As for `CC(C)=CCc1c2c(c(O)c3c1O[C@H](c1ccc(O)cc1)CC3=O)C=CC(C)(C)O2` [LUPINIFOLIN], the negative-log Ki (pKi) on Tyrosinase [1] is 4.44; on Tyrosinase [3], 5.27. In addition, the pIC50 against Tyrosinase [2] is 4.08; against Tyrosinase [5] it was 4.95. For the same compound, the inhibition entry in assay [4] is “Dose-dependent effect”.

Regarding `COc1ccc(CCC(=O)c2c(O)c(CC=C(C)C)c3c(c2O)CC(O)C(C)(C)O3)cc1` (centres undefined), the inhibition entry in assay [7] is “Active”. Also, the Ratio IC50 in assay [6] stood at 10. Moreover, the figures for the inhibition entry in assay [8] and in assay [4] were “tde” and “Dose-dependent effect”, respectively. The pKi at Tyrosinase [1] was 5.09; at Tyrosinase [3], 6.32. Also, the pIC50 was 4.71 against Tyrosinase [2] and 6.00 against Tyrosinase [5].
